The results in this text go back to patent publication US12428389B2, “Diarylamide compound and application thereof” (Sunshine Lake Pharma Co., Ltd., priority 2019, dated 2025).

pIC50: −log10 of the molar value. Read-outs that look alike come from different tables or passages of the source. Some results are limits rather than exact numbers.

Experiment [1] has as its target T1, UT-B (Rattus norvegicus, UniProt P97689).
T1 construct: endogenous in cells; host or cells: erythrocytes of SD rats
T1 sequence (P97689 1-384): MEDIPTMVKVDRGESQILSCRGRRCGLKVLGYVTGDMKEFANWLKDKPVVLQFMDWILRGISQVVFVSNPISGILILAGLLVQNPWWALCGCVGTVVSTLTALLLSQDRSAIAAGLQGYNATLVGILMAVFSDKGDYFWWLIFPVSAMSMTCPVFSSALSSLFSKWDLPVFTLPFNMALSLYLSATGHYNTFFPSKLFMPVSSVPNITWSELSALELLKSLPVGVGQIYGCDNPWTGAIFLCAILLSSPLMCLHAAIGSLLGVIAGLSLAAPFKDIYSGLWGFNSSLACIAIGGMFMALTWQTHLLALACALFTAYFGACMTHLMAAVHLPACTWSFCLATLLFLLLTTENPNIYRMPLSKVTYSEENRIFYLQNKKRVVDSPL
Nature of the experiment: erythrocyte lysis model, rat erythrocytes. The note with it: concentration when the erythrocyte lysis rate of rats was 50%; read-out: IC50 rats. The format is cell-based, rats. The method, then:
(§1) Erythrocyte lysis rate was calculated:
(§2) The formula for calculating the lysis rate percentage of erythrocytes, wherein Atest was the absorbance value of the test well, Aneg was the absorbance value of the negative control well, and Apos was the absorbance value of the positive control well. Erythrocyte lysis rate was calculated by measuring absorption at a wavelength of 710 nm.
(§3) The erythrocytes of three species of human, rats (SD rats) and mice (C57 mice) were taken, and urea transporter inhibitors were preliminarily screened from the above screening compound library by using the erythrocyte urea transporter inhibitor screening model.

The target in the next experiment is T2, human UT-B (Homo sapiens, UniProt Q13336).
T2 construct: endogenous in cells; host or cells: human erythrocytes
T2 sequence (Q13336 1-389): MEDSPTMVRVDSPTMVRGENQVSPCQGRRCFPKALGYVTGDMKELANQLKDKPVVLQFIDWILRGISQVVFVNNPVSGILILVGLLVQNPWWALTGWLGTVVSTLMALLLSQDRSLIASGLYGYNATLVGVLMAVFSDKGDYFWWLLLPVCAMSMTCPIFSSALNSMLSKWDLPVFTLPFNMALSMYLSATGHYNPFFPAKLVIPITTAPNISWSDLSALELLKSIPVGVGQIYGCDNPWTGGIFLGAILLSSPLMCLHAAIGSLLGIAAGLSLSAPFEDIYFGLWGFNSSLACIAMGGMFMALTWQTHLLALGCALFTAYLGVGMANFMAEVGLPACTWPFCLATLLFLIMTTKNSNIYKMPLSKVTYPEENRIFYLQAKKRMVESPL
Kind of experiment: erythrocyte lysis model, human erythrocytes. The format is cell-based. As to the method:
as §1, §2, §3

Experiment [2] addresses T3, UT-B (Mus musculus, UniProt Q8VHL0).
T3 construct: endogenous in cells; host or cells: erythrocytes of C57 mice
T3 sequence (Q8VHL0 1-384): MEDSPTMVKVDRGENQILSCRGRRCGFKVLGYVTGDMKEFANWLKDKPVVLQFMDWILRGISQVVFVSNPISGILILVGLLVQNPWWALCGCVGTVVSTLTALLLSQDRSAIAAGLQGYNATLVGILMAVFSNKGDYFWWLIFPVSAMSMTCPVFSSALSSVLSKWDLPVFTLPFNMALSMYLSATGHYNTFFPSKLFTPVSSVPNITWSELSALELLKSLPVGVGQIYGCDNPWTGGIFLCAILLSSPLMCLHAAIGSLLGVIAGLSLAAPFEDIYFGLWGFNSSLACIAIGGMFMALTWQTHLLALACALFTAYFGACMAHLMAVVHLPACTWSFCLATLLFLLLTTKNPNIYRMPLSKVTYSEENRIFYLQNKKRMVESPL
Kind of experiment: erythrocyte lysis model, mouse erythrocytes. The format is cell-based. The following applies: concentration when the erythrocyte lysis rate of mice was 50%. The method, then:
as §1, §2, §3

[3] abbreviates: class of the IC50 to human UT-B, read-out: Activity level.
Where [4] appears, read: concentration when the erythrocyte lysis rate of human was 50%, read-out: IC50 human.

For `CC(C)NC(=O)c1cccc(NC(=O)c2ccc([N+](=O)[O-])o2)c1` [Example 56, N-(3-(isopropylcarbamoyl)phenyl)-5-nitrofuran-2-carboxamide], the pIC50 on UT-B [1] is 5.75; at human UT-B (setting [3]) it was greater than 5.00; at human UT-B (setting [4]) it was 5.40; at UT-B [2], 5.01.

Regarding `CC(C)CNC(=O)c1cccc(NC(=O)c2ccc([N+](=O)[O-])o2)c1` [Example 57, N-(3-(isobutylcarbamoyl)phenyl)-5-nitrofuran-2-carboxamide], the pIC50 at UT-B [1] is 7.05; on human UT-B (setting [3]), greater than 5.00; at human UT-B (setting [4]) it was 5.85; at UT-B [2], 6.30.

Consider `O=C(NC1CCCCC1)c1cccc(NC(=O)c2ccc([N+](=O)[O-])o2)c1` [Example 58, N-(3-(cyclohexylcarbamoyl)phenyl)-5-nitrofuran-2-carboxamide], for which the pIC50 at UT-B [1] is 6.05; at human UT-B (setting [3]), greater than 5.00; on human UT-B (setting [4]), 5.75; against UT-B [2] it was 5.58.

Take `O=C(NCc1ccccc1)c1cccc(NC(=O)c2ccc([N+](=O)[O-])o2)c1` [Example 59, N-(3-(benzylcarbamoyl)phenyl)-5-nitrofuran-2-carboxamide]: the pIC50 is 6.59 at UT-B [1], greater than 5.00 on human UT-B (setting [3]), 6.31 on human UT-B (setting [4]) and 5.99 at UT-B [2].

Take `CN(C)CCNC(=O)c1cccc(NC(=O)c2ccc([N+](=O)[O-])o2)c1` [Example 60, N-(3-((2-dimethylaminoethyl)carbamoyl)phenyl)-5-nitrofuran-2-carboxamide]: the pIC50 at UT-B [1] was 6.68; on human UT-B (setting [3]), greater than 5.00; on human UT-B (setting [4]) it was 5.43; against UT-B [2], 6.13.

Consider `O=C(NCCN1CCOCC1)c1cccc(NC(=O)c2ccc([N+](=O)[O-])o2)c1` [Example 61, N-(3-((2-morpholinylethyl)carbamoyl)phenyl)-5-nitrofuran-2-carboxamide], for which the pIC50 at UT-B [1] is 5.96; at human UT-B (setting [3]) it was greater than 5.00; on human UT-B (setting [4]), 6.27; against UT-B [2] it was 5.58.

Take `O=C(NCCCN1CCOCC1)c1cccc(NC(=O)c2ccc([N+](=O)[O-])o2)c1` [Example 62, N-(3-((3-morpholinylpropyl)carbamoyl)phenyl)-5-nitrofuran-2-carboxamide]: the pIC50 on UT-B [1] was 5.85; on human UT-B (setting [3]), greater than 5.00; on human UT-B (setting [4]) it was 5.48; against UT-B [2], 5.36.

With `CNC(=O)c1cc(NC(=O)c2ccc([N+](=O)[O-])o2)ccc1C` [Example 63, N-(4-methyl-3-methylcarbamoylphenyl)-5-nitrofuran-2-carboxamide], the pIC50 on UT-B [1] is 5.75; on human UT-B (setting [3]), greater than 5.00; on human UT-B (setting [4]), 5.77; on UT-B [2] it was 5.91.

Take `CNC(=O)c1cc(C)cc(NC(=O)c2ccc([N+](=O)[O-])o2)c1` [Example 64, N-(5-methyl-3-methylcarbamoylphenyl)-5-nitrofuran-2-carboxamide]: the pIC50 at UT-B [1] was 6.49; on human UT-B (setting [3]), greater than 5.00; on human UT-B (setting [4]) it was 5.97; at UT-B [2], 5.55.

Consider `CNC(=O)c1cc(F)cc(NC(=O)c2ccc([N+](=O)[O-])o2)c1` [Example 66, N-(5-fluoro-3-methylcarbomoylphenyl)-5-nitrofuran-2-carboxamide], for which the pIC50 at UT-B [1] was 6.06; at human UT-B (setting [3]), greater than 5.00; on human UT-B (setting [4]), 5.48; on UT-B [2], 5.65.

`CNC(=O)c1cc(NC(=O)c2ccc([N+](=O)[O-])o2)ccc1O` [Example 67, N-(4-hydroxy-3-methylcarbomoylphenyl)-5-nitrofuran-2-carboxamide]: the pIC50 was 5.95 at UT-B [1], greater than 5.00 at human UT-B (setting [3]), 5.58 at human UT-B (setting [4]) and 5.58 against UT-B [2].

On to `CNC(=O)c1cc(NC(=O)c2ccc([N+](=O)[O-])o2)cc(C(=O)NC)c1` [Example 68, N^1,N^3-dimethyl-5-(5-nitrofuran-2-carboxamide) isophthalamide], for which the pIC50 at UT-B [1] is 4.46; at human UT-B (setting [3]), 4.10 to 4.70; at human UT-B (setting [4]), 4.64; against UT-B [2] it was 5.24.

Turning to `CN1C(=O)c2ccc(NC(=O)c3ccc([N+](=O)[O-])o3)cc2C1=O` [Example 69, N-(2-methyl-1,3-dihydro-1,3-dioxo-2H-isoindol-5-yl)-5-nitrofuran-2-carboxamide], the pIC50 at UT-B [1] was 5.53; at human UT-B (setting [3]), 4.70 to 5.00; on human UT-B (setting [4]), 4.91; against UT-B [2], 5.29.

Regarding `CN(C)CC(=O)Nc1ccc(NC(=O)c2ccc([N+](=O)[O-])o2)cc1` [Example 71, N-(4-(2-dimethylamino)acetamidophenyl)-5-nitrofuran-2-carboxamide], the pIC50 was 6.24 on UT-B [1], greater than 5.00 at human UT-B (setting [3]), 5.90 at human UT-B (setting [4]) and 5.27 against UT-B [2].

`O=C(CN1CCOCC1)Nc1ccc(NC(=O)c2ccc([N+](=O)[O-])o2)cc1` [Example 72, N-(4-(2-morpholinyl)acetamidophenyl)-5-nitrofuran-2-carboxamide]: the pIC50 at UT-B [1] was 5.54; on human UT-B (setting [3]) it was greater than 5.00; on human UT-B (setting [4]) it was 5.52; at UT-B [2], 5.13.

Consider `CN(C)CCC(=O)Nc1ccc(NC(=O)c2ccc([N+](=O)[O-])o2)cc1` [Example 73, N-(4-(3-dimethylamino)propionylaminophenyl)-5-nitrofuran-2-carboxamide], for which the pIC50 is 5.89 on UT-B [1], greater than 5.00 at human UT-B (setting [3]), 5.18 on human UT-B (setting [4]) and 4.57 at UT-B [2].

For the compound `CN(C)CCNCC(=O)Nc1ccc(NC(=O)c2ccc([N+](=O)[O-])o2)cc1` [Example 74, N-(4-((2-dimethylamino)ethylamino)acetamidophenyl)-5-nitrofuran-2-carboxamide], the pIC50 is 5.91 at UT-B [1], greater than 5.00 at human UT-B (setting [3]), 5.52 at human UT-B (setting [4]) and 5.02 against UT-B [2].

As for `CCOC(=O)c1cc(NC(=O)c2ccc([N+](=O)[O-])o2)[nH]n1` [Example 77, ethyl 5-(5-nitrofuran-2-carboxamide)-1H-pyrazole-3-carboxylate], the pIC50 on UT-B [1] is 5.11; at human UT-B (setting [3]) it was greater than 5.00; on human UT-B (setting [4]), 5.79; against UT-B [2] it was 4.94.

For `CNC(=O)c1cccc(NC(=O)c2ccc(C(C)=O)o2)c1` [Example 78, 3-(5-acetyl-2-furoyl)carbamamide], the pIC50 is 6.62 on UT-B [1], greater than 5.00 on human UT-B (setting [3]), 6.89 at human UT-B (setting [4]) and 6.28 against UT-B [2].

For the compound `C#Cc1cccc(NC(=O)c2ccc([N+](=O)[O-])o2)c1` [Example 79, N-3-(ethynylphenyl)-5-nitrofuran-2-carboxamide], the pIC50 on UT-B [1] was 5.96; on human UT-B (setting [3]), greater than 5.00; at human UT-B (setting [4]), 6.09; against UT-B [2], 5.31.

As to “N-(4-fluoro-3-methylcarbomoylphenyl)-5-nitrofuran-2-carboxamide [Example 65]”, the pIC50 at UT-B [1] was 4.74; at human UT-B (setting [3]), 4.10 to 4.70; at human UT-B (setting [4]) it was 4.62; against UT-B [2] it was 5.36.

With “ethyl 2-acetamido-5-(5-nitrofuran-2-carboxamide) benzoate [Example 75]”, the pIC50 on UT-B [1] is 5.32; on human UT-B (setting [3]), greater than 5.00; at human UT-B (setting [4]) it was 6.43; on UT-B [2], 5.19.
